The values below come from patent publication US20240390383A1, “DIOXAZINES AND THEIR USE IN TREATMENT OF GBA-RELATED DISEASES” (ZEVRA DENMARK A/S, priority 2021, published 2024).

Where “and” joins values, the source holds several entries; their conditions need not be identical. Equal entries are not always repeated.

The target of this assay is T1, GCase (GBA) in human fibroblast cell line GM10915 harboring the L444P GBA mutation (Homo sapiens, UniProt P04062, L483P).
T1 construct: Human fibroblast cell line GM10915 harboring the L444P GBA mutation; host or cells: GM10915 human fibroblasts
T1 sequence (P04062 40-536 L483P): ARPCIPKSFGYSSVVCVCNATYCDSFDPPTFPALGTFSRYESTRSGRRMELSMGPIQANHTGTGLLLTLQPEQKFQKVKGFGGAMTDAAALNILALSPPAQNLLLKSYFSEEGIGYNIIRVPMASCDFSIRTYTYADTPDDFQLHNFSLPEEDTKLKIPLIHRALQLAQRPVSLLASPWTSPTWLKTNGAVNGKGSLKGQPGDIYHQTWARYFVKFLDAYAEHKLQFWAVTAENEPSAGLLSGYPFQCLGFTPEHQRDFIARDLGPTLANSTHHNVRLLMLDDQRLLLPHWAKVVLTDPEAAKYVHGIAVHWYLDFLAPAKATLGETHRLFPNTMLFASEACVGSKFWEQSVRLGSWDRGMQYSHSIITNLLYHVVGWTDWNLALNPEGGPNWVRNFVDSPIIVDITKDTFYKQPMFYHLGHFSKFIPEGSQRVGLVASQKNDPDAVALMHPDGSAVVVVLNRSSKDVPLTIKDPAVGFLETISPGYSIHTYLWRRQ
Briefly: GCase activity assay (4-MUG substrate, normalised to crystal violet staining) in L444P GBA fibroblasts. The format is cell-based. Conditions: 5 days exposure; for GBA EC1.5: concentration giving 150% GCase activity (1.5-fold induction), 8-point dose range; for GBA Emax / Emax: maximum percent GCase activity relative to untreated cells in the dose range tested. Summed up: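 Patient fibroblasts GM10915 (L444P GBA) exposed to compounds for five days over an 8-point range, with fresh dosing every 2–3 days. Intact-cell GCase measured with 2.5 mM 4-MUG at pH 4.0 for 23 h at 37 °C (ex/em 365/445 nm), normalised to crystal violet, as % of PBS basal; Emax is the maximum reached.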

Turning to `C1CCN(C[C@@H]2CON=C([C@]34CCC[C@H]3NCC4)O2)CC1` (relative stereo) [compound 589, (rel-R)-3-((rel-trans-3aS,6aR)-hexahydrocyclopenta[b]pyrrol-3a(1H)-yl)-5-(piperidin-1-ylmethyl)-5,6-dihydro-1,4,2-dioxazine], the “GBA EC1.5” value is 4 µM and 5 µM; the “GBA Emax” value was 216% and 272%.
On to `Cn1ncc(CC2(C3=NOCC(CN4CCCCC4)O3)CCNCC2)n1` (stereo not drawn) [compound 507], for which the “GBA EC1.5” value is 35 µM and the Emax was found to be 149%.
The like results for `CC(C)(C1=NOCC(CN2CCCCC2)O1)C1CCNCC1` (racemic) [compound 477, rac-5-(piperidin-1-ylmethyl)-3-(2-(piperidin-4-yl)propan-2-yl)-5,6-dihydro-1,4,2-dioxazine di-2,2,2-trifluoroacetate] were, in that order, 15 µM and 181%.
The like results for `COc1cc(OC)c(CNCCC2=NOCC(CN3CCCCC3)O2)cn1` (stereo not drawn) [compound 829] were, in that order, 5 µM and 175%.
The like results for `CC(C)c1ccc(CC2(C3=NOCC(CN4CCCCC4)O3)CCNCC2)cn1` (stereo not drawn) [compound 538] were, in that order, 1 µM and 147%.
With `CC1(C)CNCC1C1=NOCC(CN2CCCCC2)O1` (racemic) [compound 688, rac-3-(4,4-dimethylpyrrolidin-3-yl)-5-(piperidin-1-ylmethyl)-5,6-dihydro-1,4,2-dioxazine], the “GBA EC1.5” value stood at 34 µM and the maximal response (Emax) worked out at 152%.
The corresponding values for `C1CCN(CC2CON=C(C34CCN(CC3)C4)O2)CC1` (racemic) [compound 641, rac-3-(1-azabicyclo[2.2.1]heptan-4-yl)-5-(piperidin-1-ylmethyl)-5,6-dihydro-1,4,2-dioxazine] are 3 µM and 275%.
In the case of `CC1(C2=NOC[C@@H](CN3CCCCC3)O2)CCNCC1` [compound 892], the “GBA EC1.5” value turned out to be 13 µM and the “GBA Emax” value came out at 274%.
Turning to `CC(N)C(=O)N1CCC(C2=NOCC(CN3CCCCC3)O2)C1` (racemic) [compound 691, rac-2-amino-1-(3-(5-(piperidin-1-ylmethyl)-5,6-dihydro-1,4,2-dioxazin-3-yl)pyrrolidin-1-yl)propan-1-one], the “GBA EC1.5” value was 25 µM and the Emax is 252%.
`Cn1cnc(CC2(C3=NOCC(CN4CCCCC4)O3)CCNCC2)c1` (stereo not drawn) [compound 582]: the “GBA EC1.5” value worked out at 50 µM and the maximal effect (Emax) was 114%.
`C[C@]1(C2=NOC[C@H](CN3CCCCC3)O2)CCCNC1` [compound 881]: the “GBA EC1.5” value was 5 µM and the maximal response (Emax) amounted to 219%.
As to `F[C@H]1CN[C@H](C2=NOCC(CN3CCCCC3)O2)C1` (stereo partly drawn) [compound 556], the “GBA EC1.5” value was 50 µM and the maximal effect (Emax) stood at 114%.
The like results for `CC(C)N1CCCC(C2=NOCC(CN3CCCCC3)O2)C1` (racemic) [compound 709, rac-3-(1-isopropylpiperidin-3-yl)-5-(piperidin-1-ylmethyl)-5,6-dihydro-1,4,2-dioxazine] were, in that order, 22 µM and 178%.
The like results for `CC(C)(C1=NOCC(CN2CCCCC2)O1)C1CCCNC1` (racemic) [compound 473, rac-5-(piperidin-1-ylmethyl)-3-(2-(piperidin-3-yl)propan-2-yl)-5,6-dihydro-1,4,2-dioxazine di-2,2,2-trifluoroacetate] were, in that order, 9 µM and 181%.
The like results for `NCC(=O)N1CCC(C2=NOCC(CN3CCCCC3)O2)C1` (racemic) [compound 699, rac-2-amino-1-(3-(5-(piperidin-1-ylmethyl)-5,6-dihydro-1,4,2-dioxazin-3-yl)pyrrolidin-1-yl)ethan-1-one] were, in that order, 38 µM and 203%.
Consider `C1CCN(CC2CON=C([C@]34CNC[C@H]3CCOC4)O2)CC1` (relative stereo) [compound 461, rac-rel-trans-(3aR,7aR)-3a-(5-(piperidin-1-ylmethyl)-5,6-dihydro-1,4,2-dioxazin-3-yl)octahydropyrano[3,4-c]pyrrole], for which the “GBA EC1.5” value was determined as 19 µM and the Emax stood at 203%.
The like results for `COC1CNC(C)(C2=NOCC(CN3CCCCC3)O2)C1` (racemic) [compound 565, rac-3-(4-methoxy-2-methylpyrrolidin-2-yl)-5-(piperidin-1-ylmethyl)-5,6-dihydro-1,4,2-dioxazine] were, in that order, 37 µM and 168%.
Consider `C1CCN(CC2CON=C(CC3CCCNC3)O2)CC1` (racemic) [compound 554, rac-5-(piperidin-1-ylmethyl)-3-(piperidin-3-ylmethyl)-5,6-dihydro-1,4,2-dioxazine], for which the “GBA EC1.5” value was 11 µM and the Emax was 271%.
Take `CC(C)C1ON=C(C2CCNCC2)OC1CN1CCCCC1` (racemic) [compound 706, rac-6-isopropyl-5-(piperidin-1-ylmethyl)-3-(piperidin-4-yl)-5,6-dihydro-1,4,2-dioxazine]: the “GBA EC1.5” value was found to be 6 µM and the maximal effect (Emax) was 180%.
Turning to `C[C@H](N)C(=O)N1CCCC(C2=NOCC(CN3CCCCC3)O2)C1` (stereo partly drawn) [compound 718, rac-(2S)-2-amino-1-(3-(5-(piperidin-1-ylmethyl)-5,6-dihydro-1,4,2-dioxazin-3-yl)piperidin-1-yl)propan-1-one], the “GBA EC1.5” value came out at 17 µM and the maximum response (Emax) came out at 341%.
Regarding `COC1CN(C)CC1C1=NOCC(CN2CCCCC2)O1` (racemic) [compound 821, rac-3-(4-methoxy-1-methylpyrrolidin-3-yl)-5-(piperidin-1-ylmethyl)-5,6-dihydro-1,4,2-dioxazine], the “GBA EC1.5” value is 29 µM and the maximal response (Emax) was determined as 213%.
The like results for `COC1CN(C(C)C)CCC1C1=NOCC(CN2CCCCC2)O1` (racemic) [compound 714, rac-3-(1-isopropyl-3-methoxypiperidin-4-yl)-5-(piperidin-1-ylmethyl)-5,6-dihydro-1,4,2-dioxazine] were, in that order, 16 µM and 213%.
The corresponding values for `OC1CCC(C2=NOCC(CN3CCCCC3)O2)CC1` (stereo not drawn) [compound 609] are 50 µM and 119%.
The corresponding values for `c1cnc(N2CCC(C3=NOCC(CN4CCCCC4)O3)CC2)nc1` (stereo not drawn) [compound 658] are 50 µM and 116%.
With `CC(=O)NC1CCNCC1C1=NOCC(CN2CCCCC2)O1` (stereo not drawn) [compound 671], the “GBA EC1.5” value was determined as 50 µM and the maximal effect (Emax) turned out to be 146%.
Regarding `CC1(C2=NOCC(CN3CCCCC3)O2)CCNCC1` (racemic) [compound 568, rac-3-(4-methylpiperidin-4-yl)-5-(piperidin-1-ylmethyl)-5,6-dihydro-1,4,2-dioxazine], the “GBA EC1.5” value turned out to be 6 µM and the maximal effect (Emax) amounted to 281%.
The corresponding values for `CN1CCCC(C)(C2=NOCC(CN3CCCCC3)O2)C1` (racemic) [compound 529, rac-3-(1,3-dimethylpiperidin-3-yl)-5-(piperidin-1-ylmethyl)-5,6-dihydro-1,4,2-dioxazine] are 11 µM and 222%.
The corresponding values for `CC1(C2=NOCC(CN3CCNC(C(F)(F)F)CC3)O2)CCNCC1` (racemic) [compound 500, rac-3-(4-methylpiperidin-4-yl)-5-((5-(trifluoromethyl)-1,4-diazepan-1-yl)methyl)-5,6-dihydro-1,4,2-dioxazine] are 14 µM and 166%.
The like results for `c1cncc(CC2(C3=NOCC(CN4CCCCC4)O3)CCNCC2)c1` (racemic) [compound 550, rac-5-(piperidin-1-ylmethyl)-3-(4-(pyridin-3-ylmethyl)piperidin-4-yl)-5,6-dihydro-1,4,2-dioxazine] were, in that order, 27 µM and 159%.
For `CN(C)C(=O)N1CCCC(C2=NOCC(CN3CCCCC3)O2)C1` (stereo not drawn) [compound 670], the “GBA EC1.5” value was determined as 50 µM and the Emax stood at 126%.
The like results for `C1CCN(CC2CON=C(CC3CNCCO3)O2)CC1` (stereo not drawn) [compound 863] were, in that order, 6 µM and 253%.
Take `Nc1ccc(N2CCC(C3=NOCC(CN4CCCCC4)O3)CC2)nc1` (stereo not drawn) [compound 679]: the “GBA EC1.5” value was determined as 50 µM and the maximal effect (Emax) turned out to be 107%.
Turning to `C[C@@]1(C2=NOC[C@@H](CN3CCCCC3)O2)CCCNC1` [compound 883], the “GBA EC1.5” value turned out to be 7 µM and the Emax came out at 201%.
Turning to `CN1[C@@H]2CC[C@H]1CN(CC1CON=C(C3(C)CCNCC3)O1)C2` (stereo partly drawn) [compound 603], the “GBA EC1.5” value amounted to 50 µM and the Emax came out at 102%.
The like results for `C1CCN(CCC2=NOC[C@H](CN3CCCCC3)O2)CC1` [compound 891] were, in that order, 15 µM and 209%.
The like results for `c1ccc(N2CCC(C3=NOCC(CN4CCCCC4)O3)C2)nc1` (stereo not drawn) [compound 672] were, in that order, 50 µM and 127%.

The Emax is the maximal effect, on the per cent scale that the assay sets.
